# Tests used:
# Rattus norvegicus [1] = assay: Antihypertensive activity in spontaneously hypertensive rat assessed as maximum fall in mean arterial pressure at 1 mg/kg, po; format: functional, Artery
# Rattus norvegicus [2] = assay: Antihypertensive activity in spontaneously hypertensive rat assessed as maximum fall in mean arterial pressure at 2 mg/kg, po; format: functional, Artery
# Rattus norvegicus [3] = assay: Antihypertensive activity in spontaneously hypertensive rat assessed as duration of effect at 1 mg/kg, po; format: functional
# Rattus norvegicus [4] = assay: Antihypertensive activity in spontaneously hypertensive rat assessed as duration of effect at 2 mg/kg, po; format: functional
# Canis familiaris [5] = assay: Peripheral vasodilating activity in anesthetized trachea-cannulated mongrel dog assessed as increase in iliac blood flow at 1600 ug administered intraarterially in presence of isoproterenol; format: functional, Canis lupus familiaris, Artery
# Rattus norvegicus [6] = assay: Antihypertensive activity in spontaneously hypertensive rat assessed as maximum fall in mean arterial pressure at 20 mg/kg, ip; format: functional, Artery; settings: route intraperitoneal
# Rattus norvegicus [7] = assay: Antihypertensive activity in spontaneously hypertensive rat assessed as maximum fall in mean arterial pressure at 20 mg/kg, po; format: functional, Artery
# Rattus norvegicus [8] = assay: Antihypertensive activity in spontaneously hypertensive rat assessed as duration of effect at 20 mg/kg, ip; format: functional; settings: route intraperitoneal
# Canis familiaris [9] = assay: Peripheral vasodilating activity in anesthetized trachea-cannulated mongrel dog assessed as increase in iliac blood flow at 1600 ug administered intraarterially co-treated with 800 ug/kg timolol in presence of isoproterenol; format: functional, Canis lupus familiaris, Artery
# Canis familiaris [10] = assay: Blockade of isoprolerenol-induced hypotension in iv dosed anesthetized trachea-cannulated mongrel dog assessed as mean arterial pressure; format: functional; settings: Canis lupus familiaris, Artery
# Canis familiaris [11] = assay: Blockade of isoprolerenol-induced tachycardia in iv dosed anesthetized trachea-cannulated mongrel dog assessed as heart rate; format: functional; settings: Canis lupus familiaris
# Canis familiaris [12] = assay: Peripheral vasodilating activity in anesthetized trachea-cannulated mongrel dog assessed as increase in iliac blood flow at 1600 ug administered intraarterially co-treated with 2000 ug/kg timolol in presence of isoproterenol; format: functional, Canis lupus familiaris, Artery
# Rattus norvegicus [13] = assay: Antihypertensive activity in spontaneously hypertensive rat assessed as maximum fall in mean arterial pressure at 0.312 mg/kg, po; format: functional, Artery
# Rattus norvegicus [14] = assay: Antihypertensive activity in spontaneously hypertensive rat assessed as maximum fall in mean arterial pressure at 1.25 mg/kg, po; format: functional, Artery
# Rattus norvegicus [15] = assay: Antihypertensive activity in spontaneously hypertensive rat assessed as maximum fall in mean arterial pressure at 5 mg/kg, po; format: functional, Artery
# Rattus norvegicus [16] = assay: Antihypertensive activity in spontaneously hypertensive rat assessed as duration of effect at 0.312 mg/kg, po; format: functional
# Rattus norvegicus [17] = assay: Antihypertensive activity in spontaneously hypertensive rat assessed as duration of effect at 1.25 mg/kg, po; format: functional
# Rattus norvegicus [18] = assay: Antihypertensive activity in spontaneously hypertensive rat assessed as duration of effect at 5 mg/kg, po; format: functional
# Canis familiaris [19] = assay: Peripheral vasodilating activity in anesthetized trachea-cannulated mongrel dog assessed as increase in iliac blood flow at 8 ug administered intraarterially in presence of isoproterenol; format: functional, Canis lupus familiaris, Artery
# Canis familiaris [20] = assay: Peripheral vasodilating activity in anesthetized trachea-cannulated mongrel dog assessed as increase in iliac blood flow at 16 ug administered intraarterially in presence of isoproterenol; format: functional, Canis lupus familiaris, Artery
# Canis familiaris [21] = assay: Peripheral vasodilating activity in anesthetized trachea-cannulated mongrel dog assessed as increase in iliac blood flow at 32 ug administered intraarterially in presence of isoproterenol; format: functional, Canis lupus familiaris, Artery
# Canis familiaris [22] = assay: Peripheral vasodilating activity in anesthetized trachea-cannulated mongrel dog assessed as increase in iliac blood flow at 8 ug administered intraarterially co-treated with 2000 ug/kg timolol in presence of isoproterenol; format: functional, Canis lupus familiaris, Artery
# Canis familiaris [23] = assay: Peripheral vasodilating activity in anesthetized trachea-cannulated mongrel dog assessed as increase in iliac blood flow at 16 ug administered intraarterially co-treated with 2000 ug/kg timolol in presence of isoproterenol; format: functional, Canis lupus familiaris, Artery
# Canis familiaris [24] = assay: Peripheral vasodilating activity in anesthetized trachea-cannulated mongrel dog assessed as increase in iliac blood flow at 32 ug administered intraarterially co-treated with 2000 ug/kg timolol in presence of isoproterenol; format: functional, Canis lupus familiaris, Artery
# Rattus norvegicus [25] = assay: Antihypertensive activity in spontaneously hypertensive rat assessed as maximum fall in mean arterial pressure at 8 mg/kg, po; format: functional, Artery
# Rattus norvegicus [26] = assay: Antihypertensive activity in spontaneously hypertensive rat assessed as duration of effect at 8 mg/kg, po; format: functional
# Canis familiaris [27] = assay: Peripheral vasodilating activity in anesthetized trachea-cannulated mongrel dog assessed as increase in iliac blood flow at 800 ug administered intraarterially co-treated with 320 ug/kg timolol in presence of isoproterenol; format: functional, Canis lupus familiaris, Artery
# Canis familiaris [28] = assay: Peripheral vasodilating activity in anesthetized trachea-cannulated mongrel dog assessed as increase in iliac blood flow at 800 ug administered intraarterially in presence of isoproterenol; format: functional, Canis lupus familiaris, Artery
# Canis familiaris [29] = assay: Peripheral vasodilating activity in anesthetized trachea-cannulated mongrel dog assessed as increase in iliac blood flow at 800 ug administered intraarterially co-treated with 800 ug/kg timolol in presence of isoproterenol; format: functional, Canis lupus familiaris, Artery
# Canis familiaris [30] = assay: Toxicity in renal hypertensive dog assessed as elevation in heart rate at 4 to 16 mg/kg; format: organism-based, Canis lupus familiaris; parameters: dose 4-16 mg/kg; settings: in vivo
# Rattus norvegicus [31] = assay: Antihypertensive activity in spontaneously hypertensive rat assessed as duration of effect at 20 mg/kg, po; format: functional
# Canis familiaris [32] = assay: Peripheral vasodilating activity in anesthetized trachea-cannulated mongrel dog assessed as increase in iliac blood flow at 60 ug administered intraarterially in presence of isoproterenol; format: functional, Canis lupus familiaris, Artery
SMILES,Activity (Canis familiaris [5]) [mL/min],Activity (Rattus norvegicus [6]) [mmHg],Activity (Rattus norvegicus [7]) [mmHg],Time (Rattus norvegicus [8]) [h],ED50 (Canis familiaris [10]) [mg/kg],ED50 (Canis familiaris [11]) [mg/kg],Activity (Canis familiaris [12]) [mL/min],Activity (Rattus norvegicus [14]) [mmHg],Activity (Rattus norvegicus [15]) [mmHg],Time (Rattus norvegicus [17]) [h],Time (Rattus norvegicus [18]) [h],other results
NNc1nncc2ccccc12 [HYDRALAZINE],66,–,–,–,–,–,–,–,–,–,–,Activity (Rattus norvegicus [1]): 30 mmHg; Activity (Rattus norvegicus [2]): 40 mmHg; Time (Rattus norvegicus [3]): 6 h; Time (Rattus norvegicus [4]): >7 h
CC(C)(C)NC[C@H](O)COc1ccc(-c2ncc(C(F)(F)F)[nH]2)cn1,103,40,0,>7,0.058,0.0025,–,–,–,–,–,Activity (Canis familiaris [9]): 38 mL/min
CC(C)(C)NC[C@H](O)COc1cccc(-c2ncc(C(F)(F)F)[nH]2)c1,–,40,5,>7,0.086,> 1,–,–,–,–,–,–
CC(C)(C)NC[C@H](O)COc1ncccc1-c1ncc(C(F)(F)F)[nH]1,4,8,6,–,0.125,0.25,9,–,–,–,–,–
CC(C)(C)NC[C@H](O)COc1ccccc1-c1ncc(C(F)(F)F)[nH]1,35,32,0,<7,0.1,0.3,33,–,–,–,–,–
CC(C)(C)NCC(O)COc1ccc(-c2nc(C(F)(F)F)c[nH]2)cc1 (racemic),9,–,–,–,0.036,0.009,15,36,49,18,18,Activity (Rattus norvegicus [13]): 21 mmHg; Time (Rattus norvegicus [16]): 7 h; Activity (Canis familiaris [19]): 52 mL/min; Activity (Canis familiaris [20]): 58 mL/min; Activity (Canis familiaris [21]): 63 mL/min; Activity (Canis familiaris [22]): 10 mL/min; Activity (Canis familiaris [23]): 17 mL/min; Activity (Canis familiaris [24]): 17 mL/min
FC(F)(F)c1cnc(-c2cccnc2)[nH]1,–,–,–,–,–,–,–,–,–,–,–,Activity (Rattus norvegicus [1]): 21 mmHg; Activity (Rattus norvegicus [2]): 39 mmHg; Activity (Rattus norvegicus [25]): 48 mmHg; Time (Rattus norvegicus [3]): 2 h; Time (Rattus norvegicus [4]): 6 h; Time (Rattus norvegicus [26]): >6 h; Activity (Canis familiaris [27]): 99 mL/min; Activity (Canis familiaris [28]): 93 mL/min; Activity (Canis familiaris [29]): 76 mL/min; Activity (Canis familiaris [30]): 82 bpm
CC(C)(C)NC[C@@H](O)COc1ccc(-c2ncc(C(F)(F)F)[nH]2)cc1,–,–,49,–,> 1,0.102,–,16,22,2,6,Time (Rattus norvegicus [31]): 8 h
CC(C)(C)NC[C@H](O)COc1ccc(-c2nc(C(F)(F)F)c[nH]2)cc1,–,–,–,–,0.038,0.0076,–,40,56,18,>24,Activity (Rattus norvegicus [13]): 24 mmHg; Time (Rattus norvegicus [16]): 12 h; Activity (Canis familiaris [32]): 5 mL/min

# Source: ChEMBL document CHEMBL3244371, “An approach to peripheral vasodilator-beta-adrenergic blocking agents” (J Med Chem, 1977)
